# Legend:
# EGFR = assay: Western blot, EGFR protein levels in drug-resistant NSCLC cells; type: cell-based
# Experimental: (§1) Cells were washed once with PBS and frozen in RIPA lysis buffer containing protease and phosphatase inhibitors (Sigma-Aldrich) for 30 min. After sonication and centrifugation, the total protein concentration was determined by protein assay using Bio-Rad concentrated dye reagent (Bio-Rad). Equal amounts of protein ([…]) from each sample were separated by SDS-PAGE and electrotransferred to nitrocellulose membranes (GE Healthcare). Detection was performed on the membrane with a 1:1000 dilution of specific primary antibody followed by incubation with a 1:2000 dilution of the HRP conjugated secondary antibody. Finally, immunoreactivity is detected with a chemiluminescent substrate (Clarity Western ECL substrate; Bio-Rad). […] Aurora A (#ab13824) and PLK1 (#ab189139) antibodies were from Abcam.
# [1] = system: p70S6K, AURKA, MET, S6RP and EGFR protein levels; assay: Western blot time course of protein reduction in A549 and H1650 cells; type: cell-based; conditions: 2 μM
# Experimental: (§2) Cells were washed once with PBS and frozen in RIPA lysis buffer containing protease and phosphatase inhibitors (Sigma-Aldrich) for 30 min. After sonication and centrifugation, the total protein concentration was determined by protein assay using Bio-Rad concentrated dye reagent (Bio-Rad). Equal amounts of protein ([…]) from each sample were separated by SDS-PAGE and electrotransferred to nitrocellulose membranes (GE Healthcare). Detection was performed on the membrane with a 1:1000 dilution of specific primary antibody followed by incubation with a 1:2000 dilution of the HRP conjugated secondary antibody. Finally, immunoreactivity is detected with a chemiluminescent substrate (Clarity Western ECL substrate; Bio-Rad). EGFR (#4267S), MET (#8198S), p-Akt (#9271L), akt (#9272S), p-mTOR (#5536S), mTOR (#2983S), p-p70S6K (#9234S), p70S6K (#2708S), p-S6RP (#4857S), S6RP (#2217S), p-4E-BP1 (#9455S) antibodies. 4E-BP1 (#9644S), p53 (#2527S), p21 waf1/Cip1 (#2947S), survivin (#2808S), cyclin B1 (#12231S), cyclin D3 (#2936S) and GAPDH (#2118S) were purchased from Cell Signaling Technology. Aurora A (#ab13824) and PLK1 (#ab189139) antibodies were from Abcam.
# In FIGS. 7, A549 and H1650 cells were treated with ATA (2 μM) for 6, 12, 24, 36, and 48 h, and the protein levels of p70S6K, AURKA, MET, S6RP, and EGFR at each time point were determined by Western blot analysis as shown in (A), and the quantified protein levels are shown in (B). […] (D) is protein levels of p70S6K, p-p70S6K, S6RP, p-S6RP, p21, cyclin D3, AURKA, PLK1, cyclin B1, survivin, EGFR, and MET determined by Western blot analysis for A549 and H1650 cells treated with 10 nM p70S6K siRNA and siRNA negative control for 48 h. (E) is cell viability measured by MTT test for A549 and H1650 cells treated with 10 nM p70S6K siRNA and the negative control siRNA for 48 h. ****P<0.0001 was based on a one-way analysis of variance followed by Tukey's multiple comparison test. (F) It is protein levels of p21, cyclin D3, AURKA, PLK1, cyclin B1, survivin, EGFR, and MET determined by Western blot analysis for A549 and H1650 cells treated with LY294002 (2 μM), PF-4708671 (2 μM), rapamycin (2 μM) and ATA (2 μM) for 48 h. (G) is expression levels of EGFR, MET, p-p70S6K, p70S6K, p-S6RP, S6RP, p21, cyclin D3, AURKA, PLK1, cyclin B1 and survivin in fibroblast HDF, A549 and H1650 cells determined by Western blot analysis, respectively. Statistical data are expressed as the mean SD of three independent experiments.
# A549 cells = assay: Transwell cell migration assay; type: cell-based
# Experimental: Cell migration and invasion assays were performed in a transwell chamber (Corning, #3422) with a pore size of 8 μm. Cells were treated with different concentrations of ATA and Erlotinib for 48 h, then harvested and resuspended in a serum-free medium. Cells (1×10^4) were added to the upper side of the transwell chamber and fresh medium containing 10% FBS was added to the lower side. Cells were allowed to migrate from the upper side to the lower side of the chamber at 37° C. for 24 h. Membranes from the cell chamber were fixed with 4% paraformaldehyde for 20 min. The cells remaining on the upper side of the membrane were gently removed with a cotton swab and stained with 1% crystal violet for 20 min to stain the cells migrating to the other side of the transwell chamber. The membrane was then cut and fixed on a glass slide. The migrated cells on each slide were imaged with a Leica M165-FC microscope. For the transwell invasion assay, a Matrigel solution (Corning, #356230) was diluted to one-thirtieth with serum-free medium and applied to the upper side of the precoated chamber for 2 h, after the Matrigel had solidified, the cells were added to the upper side of the transwell chamber. The following procedure is identical to the migration assay. Migrated and invaded cells were quantified using ImageJ software.
# MET = assay: Western blot, MET protein levels in drug-resistant NSCLC cells; type: cell-based; conditions: 2 μM
# Experimental: as §1
# [2] = system: drug-resistant NSCLC cells (A549, H358, H1975, H1650); assay: MTT assay, summary over all four cell lines; type: cell-based
# Experimental: Cells were seeded at a density of 3×10^3 per well in 96-well plates, allowed to attach overnight, and treated with various concentrations of agent. After 72 h of treatment, 10 μL of MTT solution (5 mg/mL) was added to each well and cultured in the plate for 4 h. The crystallized formazan was dissolved in 100 μL of 10% (w/v) SDS and 0.01 mol/L HCl solution for 24 h, and then the value was read by spectrophotometry at 595 nm using a microplate reader.
# H1650 cells = assay: Spheroid formation experiment, H1650 cells
# p70S6K = molecular target: T1, p70S6K (Homo sapiens, UniProt P23443); assay: Western blot, p70S6K protein levels in drug-resistant NSCLC cells; type: cell-based; conditions: 48 h
# T1 construct: endogenous in cells; host or cells: A549, H358, H1975, H1650 for the Western blots
# Experimental: as §2
# T1 sequence (P23443 whole entry): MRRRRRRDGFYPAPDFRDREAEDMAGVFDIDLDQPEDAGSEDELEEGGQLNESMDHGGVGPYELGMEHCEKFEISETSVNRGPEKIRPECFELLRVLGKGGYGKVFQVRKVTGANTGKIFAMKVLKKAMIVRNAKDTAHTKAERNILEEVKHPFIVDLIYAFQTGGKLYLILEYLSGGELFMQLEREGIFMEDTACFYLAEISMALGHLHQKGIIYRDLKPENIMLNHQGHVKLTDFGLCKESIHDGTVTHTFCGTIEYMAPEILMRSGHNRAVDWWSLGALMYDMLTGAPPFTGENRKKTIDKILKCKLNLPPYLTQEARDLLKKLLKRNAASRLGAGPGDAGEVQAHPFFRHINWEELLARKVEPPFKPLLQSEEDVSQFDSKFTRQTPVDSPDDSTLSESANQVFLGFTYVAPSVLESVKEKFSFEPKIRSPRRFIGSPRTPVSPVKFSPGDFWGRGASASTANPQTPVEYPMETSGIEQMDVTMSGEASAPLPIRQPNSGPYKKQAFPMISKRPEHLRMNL
compound,measurement,setting,value
"CC(=O)Oc1c(OC(C)=O)c2c(C)coc2c2ccc3c(c12)CCCC3(C)C [ATA, acetyltanshinone IIA]",decrease of EGFR protein levels,"EGFR; A549 cells, 2 μM, 72 or 96 h",≤ 90%
same,reduction of EGFR protein levels,"EGFR; H358, H1975 and H1650 cells, 1 or 2 μM, 48 h",60-70%
same,time at which AURKA protein decreased,[1],12 h
same,time at which EGFR protein decreased,[1],48 to 72 h
same,time at which MET protein decreased,[1],24 h
same,time at which S6RP protein decreased,[1],36 h
same,time at which p70S6K protein decreased,[1],6 h
same,effect on cell migration,A549 cells; 0.5 μM,significant inhibitory effect
same,reduction of migration ability,A549 cells; 1 μM,80%
same,decrease of MET protein levels,"MET; A549 cells, 72 or 96 h",≤ 90%
same,reduction of MET protein levels,"MET; all four cell lines, 48 h",70-90%
same,IC50,"[2]; A549, H358, H1975, H1650, MTT, 72 h, read-out: IC50 values, range over the four cell lines",1.3 to 1.8 µM
same,IC50 of ATA lower than that of Erlotinib,[2]; four cell lines,6-17 fold
same,spheroid growth / sphere size,"H1650 cells; 2 μM, 0 to 8 days",completely inhibited
same,spheroid formation,H1650 cells; both 1 and 2 μM,strongly inhibited
same,levels of p70S6K protein and its phosphorylated forms,"p70S6K; A549, H358, H1975, H1650 cells, 1 or 2 μM",greatly reduced
same,levels of p70S6K,"p70S6K; A549 and H1650 cells, 2 μM",significantly decreased

# Reference: patent US20240050449A1, “Use of Acetyltanshinone IIA in Preparation of Medicament for Treating Lung Cancer and Medicament for Treating Lung Cancer” (UNIVERSITY OF MACAU, priority 2022, published 2024)
